{"source": "the NIST ThermoML archive (doi:10.1021/je800616p)", "experiment": "mn = molality of the nth substance listed, in mol/kg", "conditions": "101 kPa, Liquid; for viscosity: Capillary tube (Ostwald / Ubbelohde) method; for mass density: Vibrating tube method", "note": "± gives the expanded uncertainty stated by the source.", "data": [{"smiles": "NC(=O)c1ccccc1O", "note": "[2-hydroxybenzamide] + CO", "values": [{"measurement": "viscosity", "setting": "293.15 K, m1 = 0.0095", "value": "0.597 ± 0.0071", "unit": "mPa·s"}, {"measurement": "viscosity", "setting": "293.15 K, m1 = 0.0126", "value": "0.5976 ± 0.0071", "unit": "mPa·s"}, {"measurement": "viscosity", "setting": "293.15 K, m1 = 0.0158", "value": "0.5981 ± 0.0071", "unit": "mPa·s"}, {"measurement": "viscosity", "setting": "293.15 K, m1 = 0.019", "value": "0.5987 ± 0.0071", "unit": "mPa·s"}, {"measurement": "viscosity", "setting": "293.15 K, m1 = 0.0221", "value": "0.5993 ± 0.0071", "unit": "mPa·s"}, {"measurement": "viscosity", "setting": "293.15 K, m1 = 0.0253", "value": "0.5997 ± 0.0071", "unit": "mPa·s"}, {"measurement": "viscosity", "setting": "293.15 K, m1 = 0.0317", "value": "0.6008 ± 0.0071", "unit": "mPa·s"}, {"measurement": "mass density", "setting": "293.15 K, m1 = 0.0095", "value": "792.015 ± 0.14", "unit": "kg/m3"}, {"measurement": "mass density", "setting": "293.15 K, m1 = 0.0126", "value": "792.215 ± 0.13", "unit": "kg/m3"}, {"measurement": "mass density", "setting": "293.15 K, m1 = 0.0158", "value": "792.352 ± 0.13", "unit": "kg/m3"}, {"measurement": "mass density", "setting": "293.15 K, m1 = 0.019", "value": "792.555 ± 0.13", "unit": "kg/m3"}, {"measurement": "mass density", "setting": "293.15 K, m1 = 0.0221", "value": "792.688 ± 0.12", "unit": "kg/m3"}, {"measurement": "mass density", "setting": "293.15 K, m1 = 0.0253", "value": "792.801 ± 0.12", "unit": "kg/m3"}, {"measurement": "mass density", "setting": "293.15 K, m1 = 0.0317", "value": "792.965 ± 0.12", "unit": "kg/m3"}, {"measurement": "viscosity", "setting": "298.15 K, m1 = 0.0095", "value": "0.5471 ± 0.0069", "unit": "mPa·s"}, {"measurement": "viscosity", "setting": "298.15 K, m1 = 0.0126", "value": "0.5475 ± 0.0069", "unit": "mPa·s"}, {"measurement": "viscosity", "setting": "298.15 K, m1 = 0.0158", "value": "0.548 ± 0.0069", "unit": "mPa·s"}, {"measurement": "viscosity", "setting": "298.15 K, m1 = 0.019", "value": "0.5485 ± 0.0069", "unit": "mPa·s"}, {"measurement": "viscosity", "setting": "298.15 K, m1 = 0.0222", "value": "0.549 ± 0.0069", "unit": "mPa·s"}, {"measurement": "viscosity", "setting": "298.15 K, m1 = 0.0253", "value": "0.5495 ± 0.0069", "unit": "mPa·s"}, {"measurement": "viscosity", "setting": "298.15 K, m1 = 0.0317", "value": "0.5503 ± 0.0069", "unit": "mPa·s"}, {"measurement": "mass density", "setting": "298.15 K, m1 = 0.0095", "value": "787.285 ± 0.14", "unit": "kg/m3"}, {"measurement": "mass density", "setting": "298.15 K, m1 = 0.0126", "value": "787.479 ± 0.13", "unit": "kg/m3"}, {"measurement": "mass density", "setting": "298.15 K, m1 = 0.0158", "value": "787.615 ± 0.13", "unit": "kg/m3"}, {"measurement": "mass density", "setting": "298.15 K, m1 = 0.019", "value": "787.819 ± 0.13", "unit": "kg/m3"}, {"measurement": "mass density", "setting": "298.15 K, m1 = 0.0222", "value": "787.921 ± 0.12", "unit": "kg/m3"}, {"measurement": "mass density", "setting": "298.15 K, m1 = 0.0253", "value": "788.019 ± 0.12", "unit": "kg/m3"}, {"measurement": "mass density", "setting": "298.15 K, m1 = 0.0317", "value": "788.218 ± 0.12", "unit": "kg/m3"}, {"measurement": "viscosity", "setting": "303.15 K, m1 = 0.0095", "value": "0.5003 ± 0.0068", "unit": "mPa·s"}, {"measurement": "viscosity", "setting": "303.15 K, m1 = 0.0127", "value": "0.5005 ± 0.0068", "unit": "mPa·s"}, {"measurement": "viscosity", "setting": "303.15 K, m1 = 0.0159", "value": "0.5007 ± 0.0068", "unit": "mPa·s"}, {"measurement": "viscosity", "setting": "303.15 K, m1 = 0.0191", "value": "0.5009 ± 0.0068", "unit": "mPa·s"}, {"measurement": "viscosity", "setting": "303.15 K, m1 = 0.0223", "value": "0.5012 ± 0.0068", "unit": "mPa·s"}, {"measurement": "viscosity", "setting": "303.15 K, m1 = 0.0255", "value": "0.5015 ± 0.0068", "unit": "mPa·s"}, {"measurement": "viscosity", "setting": "303.15 K, m1 = 0.0319", "value": "0.5019 ± 0.0068", "unit": "mPa·s"}, {"measurement": "mass density", "setting": "303.15 K, m1 = 0.0095", "value": "782.541 ± 0.14", "unit": "kg/m3"}, {"measurement": "mass density", "setting": "303.15 K, m1 = 0.0127", "value": "782.725 ± 0.13", "unit": "kg/m3"}, {"measurement": "mass density", "setting": "303.15 K, m1 = 0.0159", "value": "782.859 ± 0.13", "unit": "kg/m3"}, {"measurement": "mass density", "setting": "303.15 K, m1 = 0.0191", "value": "783.029 ± 0.13", "unit": "kg/m3"}, {"measurement": "mass density", "setting": "303.15 K, m1 = 0.0223", "value": "783.149 ± 0.13", "unit": "kg/m3"}, {"measurement": "mass density", "setting": "303.15 K, m1 = 0.0255", "value": "783.261 ± 0.13", "unit": "kg/m3"}, {"measurement": "mass density", "setting": "303.15 K, m1 = 0.0319", "value": "783.449 ± 0.12", "unit": "kg/m3"}, {"measurement": "viscosity", "setting": "308.15 K, m1 = 0.0096", "value": "0.4852 ± 0.0068", "unit": "mPa·s"}, {"measurement": "viscosity", "setting": "308.15 K, m1 = 0.0128", "value": "0.4853 ± 0.03", "unit": "mPa·s"}, {"measurement": "viscosity", "setting": "308.15 K, m1 = 0.016", "value": "0.4855 ± 0.03", "unit": "mPa·s"}, {"measurement": "viscosity", "setting": "308.15 K, m1 = 0.0192", "value": "0.4857 ± 0.03", "unit": "mPa·s"}, {"measurement": "viscosity", "setting": "308.15 K, m1 = 0.0224", "value": "0.4859 ± 0.03", "unit": "mPa·s"}, {"measurement": "viscosity", "setting": "308.15 K, m1 = 0.0256", "value": "0.4862 ± 0.03", "unit": "mPa·s"}, {"measurement": "viscosity", "setting": "308.15 K, m1 = 0.0321", "value": "0.4866 ± 0.03", "unit": "mPa·s"}, {"measurement": "mass density", "setting": "308.15 K, m1 = 0.0096", "value": "777.775 ± 0.14", "unit": "kg/m3"}, {"measurement": "mass density", "setting": "308.15 K, m1 = 0.0128", "value": "777.951 ± 0.13", "unit": "kg/m3"}, {"measurement": "mass density", "setting": "308.15 K, m1 = 0.016", "value": "778.085 ± 0.13", "unit": "kg/m3"}, {"measurement": "mass density", "setting": "308.15 K, m1 = 0.0192", "value": "778.255 ± 0.13", "unit": "kg/m3"}, {"measurement": "mass density", "setting": "308.15 K, m1 = 0.0224", "value": "778.368 ± 0.13", "unit": "kg/m3"}, {"measurement": "mass density", "setting": "308.15 K, m1 = 0.0256", "value": "778.495 ± 0.13", "unit": "kg/m3"}, {"measurement": "mass density", "setting": "308.15 K, m1 = 0.0321", "value": "778.659 ± 0.13", "unit": "kg/m3"}, {"measurement": "viscosity", "setting": "310.15 K, m1 = 0.0097", "value": "0.4602 ± 0.0067", "unit": "mPa·s"}, {"measurement": "viscosity", "setting": "310.15 K, m1 = 0.0129", "value": "0.4603 ± 0.0067", "unit": "mPa·s"}, {"measurement": "viscosity", "setting": "310.15 K, m1 = 0.0161", "value": "0.4604 ± 0.0067", "unit": "mPa·s"}, {"measurement": "viscosity", "setting": "310.15 K, m1 = 0.0193", "value": "0.4607 ± 0.0067", "unit": "mPa·s"}, {"measurement": "viscosity", "setting": "310.15 K, m1 = 0.0218", "value": "0.4608 ± 0.0067", "unit": "mPa·s"}, {"measurement": "viscosity", "setting": "310.15 K, m1 = 0.0258", "value": "0.4609 ± 0.0067", "unit": "mPa·s"}, {"measurement": "viscosity", "setting": "310.15 K, m1 = 0.0323", "value": "0.4612 ± 0.0067", "unit": "mPa·s"}, {"measurement": "mass density", "setting": "310.15 K, m1 = 0.0097", "value": "775.881 ± 0.21", "unit": "kg/m3"}, {"measurement": "mass density", "setting": "310.15 K, m1 = 0.0129", "value": "776.055 ± 0.13", "unit": "kg/m3"}, {"measurement": "mass density", "setting": "310.15 K, m1 = 0.0161", "value": "776.195 ± 0.13", "unit": "kg/m3"}, {"measurement": "mass density", "setting": "310.15 K, m1 = 0.0193", "value": "776.355 ± 0.14", "unit": "kg/m3"}, {"measurement": "mass density", "setting": "310.15 K, m1 = 0.0218", "value": "776.449 ± 0.13", "unit": "kg/m3"}, {"measurement": "mass density", "setting": "310.15 K, m1 = 0.0258", "value": "776.585 ± 0.12", "unit": "kg/m3"}, {"measurement": "mass density", "setting": "310.15 K, m1 = 0.0323", "value": "776.765 ± 0.18", "unit": "kg/m3"}, {"measurement": "viscosity", "setting": "313.15 K, m1 = 0.0097", "value": "0.4502 ± 0.0067", "unit": "mPa·s"}, {"measurement": "viscosity", "setting": "313.15 K, m1 = 0.013", "value": "0.4503 ± 0.0067", "unit": "mPa·s"}, {"measurement": "viscosity", "setting": "313.15 K, m1 = 0.0162", "value": "0.4504 ± 0.0067", "unit": "mPa·s"}, {"measurement": "viscosity", "setting": "313.15 K, m1 = 0.0194", "value": "0.4506 ± 0.0067", "unit": "mPa·s"}, {"measurement": "viscosity", "setting": "313.15 K, m1 = 0.0227", "value": "0.4508 ± 0.0067", "unit": "mPa·s"}, {"measurement": "viscosity", "setting": "313.15 K, m1 = 0.0259", "value": "0.4509 ± 0.0067", "unit": "mPa·s"}, {"measurement": "viscosity", "setting": "313.15 K, m1 = 0.0325", "value": "0.4511 ± 0.0067", "unit": "mPa·s"}, {"measurement": "mass density", "setting": "313.15 K, m1 = 0.0097", "value": "775.744 ± 5", "unit": "kg/m3"}, {"measurement": "mass density", "setting": "313.15 K, m1 = 0.013", "value": "775.898 ± 5", "unit": "kg/m3"}, {"measurement": "mass density", "setting": "313.15 K, m1 = 0.0162", "value": "776.045 ± 5", "unit": "kg/m3"}, {"measurement": "mass density", "setting": "313.15 K, m1 = 0.0194", "value": "776.165 ± 5", "unit": "kg/m3"}, {"measurement": "mass density", "setting": "313.15 K, m1 = 0.0227", "value": "776.285 ± 5", "unit": "kg/m3"}, {"measurement": "mass density", "setting": "313.15 K, m1 = 0.0259", "value": "776.375 ± 5", "unit": "kg/m3"}, {"measurement": "mass density", "setting": "313.15 K, m1 = 0.0325", "value": "776.558 ± 5", "unit": "kg/m3"}]}]}
